The source of these data is PubChem BioAssay (NCI).

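Tested at 5 concentrations; 48 h exposure; 96-well plates; endpoints linearly interpolated, else capped at highest concentration. Here, GI50 denotes the concentration required for 50% inhibition of growth. TGI: total growth inhibition.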

Test systems include BT-549 breast; CAKI-1 renal; CCRF-CEM leukemia; COLO 205 colon; DU-145 prostate; HCT-15 colon; MDA-MB-435; OVCAR-3 ovarian; SK-OV-3 ovarian; SW-620 colon.
Holding throughout (assay): DTP human tumour cell line panel, 48 h

Usually GI50 stands for the concentration giving 50% growth inhibition. In general, TGI refers to the concentration at which net growth stops. Lower therefore signals more potent growth arrest.

For the compound `O=C(/C=C/c1ccccc1)Nc1ncc(Cc2ccccc2)s1`, the GI50 in the test on BT-549 breast is 1.17 µM; in the test on CAKI-1 renal it was 0.0902 µM; in the test on CCRF-CEM leukemia, 0.194 µM; with COLO 205 colon it was 0.288 µM; in the test on DU-145 prostate, 0.396 µM; in the test on HCT-15 colon it was 0.066 µM. For the same compound, the 50% growth inhibitory concentration (GI50) in the test with MDA-MB-435 was 0.0286 µM; in the test with OVCAR-3 ovarian, 0.258 µM; with SK-OV-3 ovarian, 0.458 µM; in the test with SW-620 colon, 0.144 µM. For the same compound, the concentration for total growth inhibition (TGI) with BT-549 breast was > 100 µM; in the test with CAKI-1 renal it was > 50.2 µM; with CCRF-CEM leukemia it was > 80.8 µM; with COLO 205 colon, 2.13 µM; in the test on DU-145 prostate, > 100 µM; with HCT-15 colon it was > 100 µM. Further, the total growth inhibition concentration (TGI) in the test on MDA-MB-435 was 0.1 µM; in the test on OVCAR-3 ovarian, 1.44 µM; with SK-OV-3 ovarian, 6.24 µM; with SW-620 colon it was > 100 µM.
For `C=C(C)[C@@H]1CC[C@]2(C(=O)N3CCN(C)CC3)CC[C@]3(C)[C@H](CC[C@@H]4[C@@]5(C)C/C(=C/c6ccncc6)[C@H](O)C(C)(C)[C@@H]5CC[C@]43C)[C@@H]12`, the GI50 in the test with BT-549 breast is 4.33 µM; with CAKI-1 renal it was 5.82 µM; with CCRF-CEM leukemia it was 3.3 µM; with COLO 205 colon it was 3.16 µM; in the test with DU-145 prostate it was 9.53 µM; with HCT-15 colon, 2.65 µM. For the same compound, the GI50 was 8.29 µM with MDA-MB-435, 4.82 µM in the test with OVCAR-3 ovarian, 12 µM with SK-OV-3 ovarian and 3.75 µM in the test with SW-620 colon. In addition, the concentration for total growth inhibition (TGI) amounted to 24.7 µM in the test on BT-549 breast; 25.5 µM with CAKI-1 renal; 24.5 µM with CCRF-CEM leukemia; 23 µM in the test with COLO 205 colon; 24 µM with DU-145 prostate; 12.2 µM in the test on HCT-15 colon. Further, the concentration for total growth inhibition (TGI) was determined as 33.9 µM with MDA-MB-435, 17.2 µM in the test with OVCAR-3 ovarian, 96.5 µM with SK-OV-3 ovarian and 17.7 µM with SW-620 colon.
`COc1ccccc1CN=C1NC(=O)/C(=C/c2ccc3ncccc3c2)S1`: the GI50 in the test on BT-549 breast was 5.18 µM; with CAKI-1 renal, 6.84 µM; in the test with CCRF-CEM leukemia it was 7.01 µM; in the test with COLO 205 colon it was 5.92 µM; in the test on DU-145 prostate it was 11 µM; in the test with HCT-15 colon, 4.55 µM. The GI50 in the test with MDA-MB-435 was 6.02 µM; in the test with OVCAR-3 ovarian it was 7.13 µM; in the test with SK-OV-3 ovarian it was 6.08 µM; in the test on SW-620 colon it was 4.54 µM. The TGI with BT-549 breast was 14 µM; in the test on CAKI-1 renal, > 25 µM; in the test on CCRF-CEM leukemia it was > 25 µM; with COLO 205 colon, > 24.1 µM; in the test on DU-145 prostate, > 25 µM; in the test with HCT-15 colon, > 25 µM. In addition, the total growth inhibition concentration (TGI) is > 21.3 µM in the test on MDA-MB-435, 24.9 µM in the test on OVCAR-3 ovarian, > 19.2 µM in the test with SK-OV-3 ovarian and > 25 µM in the test on SW-620 colon.
`COc1ccc(C2CC(c3ccc4ccccc4c3)=NN2/C=C2\SC(=S)N(NC(=O)Cc3ccccc3Nc3c(Cl)cccc3Cl)C2=O)cc1` (centres undefined): the GI50 is 0.681 µM in the test with BT-549 breast; 0.392 µM in the test with CAKI-1 renal; 0.239 µM with CCRF-CEM leukemia; 1.89 µM in the test with COLO 205 colon; 0.404 µM with DU-145 prostate; 0.467 µM with HCT-15 colon. Further, the 50% growth inhibitory concentration (GI50) with MDA-MB-435 is 0.221 µM; in the test on OVCAR-3 ovarian, 0.343 µM; with SK-OV-3 ovarian it was 0.847 µM; in the test with SW-620 colon, 0.416 µM. In addition, the TGI in the test on BT-549 breast was > 43 µM; in the test with CAKI-1 renal it was > 40 µM; in the test on CCRF-CEM leukemia it was > 100 µM; in the test on COLO 205 colon, > 100 µM; in the test with DU-145 prostate, 27.1 µM; with HCT-15 colon, > 65.1 µM. The figures for the TGI in the test with MDA-MB-435, with SK-OV-3 ovarian and with SW-620 colon were 0.547 µM, > 100 µM and > 52.7 µM, respectively.
Turning to `Cc1cc(C)nc(NS(=O)(=O)c2ccc(Nc3nc4nc(NCc5ccccc5)nc(-c5ccc(O)cc5)c4c(=O)[nH]3)cc2)n1`, the GI50 with BT-549 breast is 10.8 µM; in the test on CAKI-1 renal it was 57.2 µM; in the test with CCRF-CEM leukemia, 54.6 µM; with COLO 205 colon, 81.8 µM; with DU-145 prostate, 25.9 µM; in the test on HCT-15 colon it was 32.4 µM. In addition, the GI50 in the test with MDA-MB-435 was 21.3 µM; in the test with OVCAR-3 ovarian it was 6.18 µM; in the test with SK-OV-3 ovarian it was > 100 µM; with SW-620 colon, 26.7 µM. Further, the total growth inhibition concentration (TGI) with BT-549 breast is 52.9 µM; in the test with CAKI-1 renal, > 100 µM; in the test on CCRF-CEM leukemia, > 100 µM; with COLO 205 colon, > 100 µM; in the test on DU-145 prostate, > 100 µM; in the test with HCT-15 colon, > 100 µM. The TGI in the test on MDA-MB-435 is > 100 µM; in the test with OVCAR-3 ovarian, 29.5 µM; in the test on SK-OV-3 ovarian, > 100 µM; in the test with SW-620 colon, > 100 µM.
Regarding `Cc1ccc(C(=O)Nc2ccc(CN3CCN(C)CC3)c(C(F)(F)F)c2)cc1C#Cc1cnc(N)c2ccc(C#N)cc12`, the GI50 in the test on BT-549 breast was 10.1 µM; in the test with CAKI-1 renal, 0.0865 µM; in the test on CCRF-CEM leukemia it was 0.807 µM; in the test on COLO 205 colon, 0.28 µM; in the test with DU-145 prostate, 0.0403 µM; in the test on HCT-15 colon it was 0.0558 µM. The GI50 is 0.0259 µM in the test with MDA-MB-435, 1.25 µM with OVCAR-3 ovarian, 0.0981 µM with SK-OV-3 ovarian and 1.8 µM with SW-620 colon. In addition, the total growth inhibition concentration (TGI) is > 50 µM in the test with BT-549 breast; 8.48 µM in the test on CAKI-1 renal; 18 µM in the test on CCRF-CEM leukemia; > 46.5 µM in the test on COLO 205 colon; 7.39 µM in the test with DU-145 prostate; 8.77 µM in the test on HCT-15 colon. Also, the TGI in the test with MDA-MB-435 was 1.65 µM; in the test on OVCAR-3 ovarian, 19.2 µM; with SK-OV-3 ovarian, 12.8 µM; with SW-620 colon, > 28.3 µM.
Regarding `O=C(CC(O)c1cccnc1)CC(O)c1cccnc1` (centres undefined), the concentration for total growth inhibition (TGI) was 25.6 µM with BT-549 breast; 35.9 µM in the test with CAKI-1 renal; 20.9 µM in the test with CCRF-CEM leukemia; 29 µM with COLO 205 colon; > 89.7 µM in the test with DU-145 prostate; 29.6 µM in the test on HCT-15 colon. For the same compound, the TGI in the test on MDA-MB-435 was 55.3 µM; in the test on OVCAR-3 ovarian it was 28.1 µM; in the test on SK-OV-3 ovarian it was 32.6 µM; with SW-620 colon, 19.6 µM.
